# Activity calls are given as the source filed them. The calls are words filed in the database; no cut-off is given here.
# Columns and labels:
# [1] = biological target: T1, Acetolactate synthase (Zea mays, UniProt Q41768+Q41769); assay: Inhibition of Zea mays (maize) acetolactate synthase; type: protein assay
# T1 sequence (Q41768 whole entry): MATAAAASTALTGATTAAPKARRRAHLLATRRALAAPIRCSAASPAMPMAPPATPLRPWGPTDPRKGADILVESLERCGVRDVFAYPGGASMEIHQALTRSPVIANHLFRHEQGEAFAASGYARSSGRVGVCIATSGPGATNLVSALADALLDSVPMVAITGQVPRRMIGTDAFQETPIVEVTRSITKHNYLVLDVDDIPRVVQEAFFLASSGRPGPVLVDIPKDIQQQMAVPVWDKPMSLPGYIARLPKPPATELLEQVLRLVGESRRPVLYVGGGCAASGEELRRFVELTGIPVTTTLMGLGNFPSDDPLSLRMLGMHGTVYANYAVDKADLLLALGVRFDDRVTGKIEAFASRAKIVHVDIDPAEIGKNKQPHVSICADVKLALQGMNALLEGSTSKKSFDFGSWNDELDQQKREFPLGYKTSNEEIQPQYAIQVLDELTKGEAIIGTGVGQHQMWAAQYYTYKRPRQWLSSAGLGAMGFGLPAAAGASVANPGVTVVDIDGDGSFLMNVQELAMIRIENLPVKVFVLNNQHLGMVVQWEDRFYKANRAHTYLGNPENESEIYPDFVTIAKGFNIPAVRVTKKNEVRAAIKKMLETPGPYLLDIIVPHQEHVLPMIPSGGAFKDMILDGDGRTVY
# T1 sequence (Q41769 whole entry): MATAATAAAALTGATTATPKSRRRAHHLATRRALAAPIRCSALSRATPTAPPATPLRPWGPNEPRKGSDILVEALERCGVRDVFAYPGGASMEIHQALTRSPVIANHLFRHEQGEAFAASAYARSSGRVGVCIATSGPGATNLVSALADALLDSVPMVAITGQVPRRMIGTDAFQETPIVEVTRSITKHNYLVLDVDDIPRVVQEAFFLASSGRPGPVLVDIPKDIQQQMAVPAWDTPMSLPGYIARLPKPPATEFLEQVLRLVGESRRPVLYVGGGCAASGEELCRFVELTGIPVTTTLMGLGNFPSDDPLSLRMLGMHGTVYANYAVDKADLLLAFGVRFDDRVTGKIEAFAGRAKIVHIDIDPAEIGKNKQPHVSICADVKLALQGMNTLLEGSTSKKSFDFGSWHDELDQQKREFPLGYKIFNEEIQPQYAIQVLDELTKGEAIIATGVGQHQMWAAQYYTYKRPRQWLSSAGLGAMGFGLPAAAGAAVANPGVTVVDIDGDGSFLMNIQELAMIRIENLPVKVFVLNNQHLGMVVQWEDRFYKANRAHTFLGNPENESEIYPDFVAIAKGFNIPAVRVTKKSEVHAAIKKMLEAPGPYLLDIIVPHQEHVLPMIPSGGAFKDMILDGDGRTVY
# [2] = system: Zea mays; assay: Increase of acetolactate synthase activity in Zea mays (maize) root; type: functional
# [3] = system: Zea mays; assay: Protection against imazaquin-induced growth inhibition of Zea mays (maize) assessed as safening index at 0.05 to 0.4 % w/w treated 1 to 14 days before imazaquin challenge measured after 3 weeks relative to untreated control; type: functional
# [4] = system: Zea mays; assay: Effect on pyruvate content in Zea mays (maize) endosperms assessed per gram of fresh weight at 0.2 % w/w after 10 days (reference value: 11.4 umol); type: functional
# [5] = system: Zea mays; assay: Protection against bensulfuron-methyl-induced growth inhibition of Zea mays (maize) assessed as safening index at 0.05 to 0.4 % w/w treated 1 to 14 days before bensulfuron-methyl challenge measured after 3 weeks relative to untreated control; type: functional
# [6] = system: Zea mays; assay: Decrease of imazaquin-induced increase of pyruvate content in Zea mays (maize) assessed per gram of fresh weight at 0.2 % w/w after 10 days; type: functional, organism-based
# [7] = system: Zea mays; assay: Effect on pyruvate content in Zea mays (maize) embryos assessed per gram of fresh weight at 0.2 % w/w after 10 days (reference value: 8.5 umol); type: functional
# [8] = system: Zea mays; assay: Increase of acetolactate synthase activity in Zea mays (maize) shoot; type: functional
# [9] = system: Zea mays; assay: Increase of acetyl CoA carboxylase activity in Zea mays (maize) at 0.2 % w/w after 15 min relative to control; type: functional
# [10] = system: Zea mays; assay: Increase of acetolactate synthase activity in Zea mays (maize) at 0.2 % w/w after 15 min relative to control; type: functional
# [11] = system: Zea mays; assay: Effect on pyruvate content in Zea mays (maize) roots assessed per gram of fresh weight at 0.2 % w/w after 10 days (reference value: 13.3 umol); type: functional
# [12] = system: Zea mays; assay: Decrease of bensulfuron-methyl-induced increase of pyruvate content in Zea mays (maize) assessed per gram of fresh weight at 0.2 % w/w after 10 days; type: functional, organism-based
# [13] = system: Zea mays; assay: Effect on pyruvate content in Zea mays (maize) shoot assessed per gram of fresh weight at 0.2 % w/w after 10 days (reference value: 18.4 umol); type: functional
SMILES,I50 [1] [µM],Activity [2] [%],Ratio [3],Activity [4] [µmol],Ratio [5],Activity [6],Activity [7] [µmol],Activity [8] [%],Activity [9] [%],Activity [10] [%],Activity [11] [µmol],Activity [12],Activity [13] [µmol]
COC(=O)c1ccccc1CS(=O)(=O)NC(=O)Nc1nc(OC)cc(OC)n1 [BENSULFURON METHYL],0.2,,,,,,,,,,,,
CC(C)C1(C)N=C(c2nc3ccccc3cc2C(=O)O)NC1=O (centres undefined) [IMAZAQUIN],11.8,,,,,,,,,,,,
"O=C1OC(=O)c2cccc3cccc1c23 [1,8-NAPHTHALIC ANHYDRIDE]",,30,5.1,11.2,303,Active,8,24,216,31.9,13,Active,16.2

# — ChEMBL document CHEMBL3045574, “Safening Effects of 1, 8-Naphthalic Anhydride in Corn Plants Treated with Bensulfuron-methyl and Imazaquin” (J Pestic Sci, 1997)
